The text below walks through data of patent publication US11413278B2, “Compounds and methods for promoting stress resistance” (priority 2015, dated 2022).

Entries after “also recorded” stand apart in the source; their conditions may differ. Like-named read-outs stand apart in the source and are kept apart here.

Series [1] in a line: Summary score for characterization of 38 core set hits. To be noted: for D = Triple resistant: 2-point score, multiplex resistance (cadmium, MMS, H2O2); for S = Sum of Negative scores: human; for C = H2O2- & Cd-resistant: score, resistance to both H2O2 and cadmium. An outline of the steps: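 First, H2O2-resistance screen hits were characterized for longevity-related phenotypes, and each major one (multiplex resistance, FOXO3/NRF2 activation, mTOR down-regulation) received 2 points. Next, C. elegans lifespan extension was scored 0 to 2 from 4 to 6 trials. Finally, human-cell genotoxicity or toxicity subtracted a point.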

The subject of the next series is LC3A/B puncta. In words: Autophagy induction analysis (LC3A/B puncta immuno-staining). The format is cell-based, human. In short, it runs like this: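 Read-out is LC3A/B puncta intensity per DAPI-positive nucleus, either total puncta (Exp. 1) or puncta colocalizing with LAMP2 lysosomes (Exp. 2). Cells were WI-38, exposed to compounds for 24 hrs before antibody staining overnight at 4° C and automated imaging.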

The subject of series [2] is WI-38 cells. To be noted: for No H2O2 stress treatment, at 10 uM (fold change): normalized ATP measurement.
The next series deals with T1, human PARP1 (Homo sapiens, UniProt P09874).
T1 construct: purchased Trevigen
Put plainly: PARP inhibitor assay (HT Fluorescent Homogeneous PARP Inhibition Assay Kit). The format is biochemical. To be noted: for L = PARP inhibition: score. An outline of the steps:
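Compounds (10 μM final) incubated 30 min, room temperature, dark, with human PARP1, nicotinamide adenine dinucleotide and activated DNA. Fluorescent signal generated by 1 hr cycling with diaphorase and resazurin, then reaction stopped.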

In a further series the test system is NRF2. In words: in vitro. The format is cell-based, human. The settings on record: for NRF2-dependency for H2O2-resistance, at 10 uM - with H2O2, 1st experiment: experiment 1 (1st); for Assay 17: NRF2-dependency for H2O2-resistance: YES/NO.
Series [3] relates to WI-38 cells. In words: Propidium iodide (PI) cell-death imaging upon H2O2 stress. The format is cell-based, human. The settings on record: for Assay 7: H2O2-resistant, at 10 uM, validated by propidium iodide (PI) cell-death imaging: w/H2O2, 3 hrs/4 hrs/5 hrs, YES/NO; for cytotoxicity at 10 µM: Homo sapiens, WI-38.
[4] abbreviates: WI-38 cells, 10 μM, (*) = compromised ability to protect cells from H2O2, could be due to stability issue.
The mark [5] stands for this setting: asterisks indicate the loss of the ability to protect cells from H2O2 over time.
The mark [6] stands for this setting: read-out: Est. ED50, dose response 0.6-20 μM, H2O2-resistance.
Where [7] appears, read: 10 uM, with H2O2, NRF2 knockdown in WI-38 cells, YES = resistance reduced by at least 50%, partial = 25% to 50%.
Where [8] appears, read: H2O2 3 hrs, 10 uM, n = 6, negative control 5.44% ± 0.79%, read-out: Percentage of propidium iodide-positive dead cells (under H2O2 stress treatment), 3 hrs.
The mark [9] stands for this setting: pre-treatment at 10 uM, 3.5 hours of H2O2, DMSO control 27.4% ± 6.5%, */**/*** = reduced by one/two/three standard deviations, read-out: Percentage of propidium iodide-positive dead cells (under H2O2 stress treatment), at 10 uM.

T1 sequence (P09874 whole entry): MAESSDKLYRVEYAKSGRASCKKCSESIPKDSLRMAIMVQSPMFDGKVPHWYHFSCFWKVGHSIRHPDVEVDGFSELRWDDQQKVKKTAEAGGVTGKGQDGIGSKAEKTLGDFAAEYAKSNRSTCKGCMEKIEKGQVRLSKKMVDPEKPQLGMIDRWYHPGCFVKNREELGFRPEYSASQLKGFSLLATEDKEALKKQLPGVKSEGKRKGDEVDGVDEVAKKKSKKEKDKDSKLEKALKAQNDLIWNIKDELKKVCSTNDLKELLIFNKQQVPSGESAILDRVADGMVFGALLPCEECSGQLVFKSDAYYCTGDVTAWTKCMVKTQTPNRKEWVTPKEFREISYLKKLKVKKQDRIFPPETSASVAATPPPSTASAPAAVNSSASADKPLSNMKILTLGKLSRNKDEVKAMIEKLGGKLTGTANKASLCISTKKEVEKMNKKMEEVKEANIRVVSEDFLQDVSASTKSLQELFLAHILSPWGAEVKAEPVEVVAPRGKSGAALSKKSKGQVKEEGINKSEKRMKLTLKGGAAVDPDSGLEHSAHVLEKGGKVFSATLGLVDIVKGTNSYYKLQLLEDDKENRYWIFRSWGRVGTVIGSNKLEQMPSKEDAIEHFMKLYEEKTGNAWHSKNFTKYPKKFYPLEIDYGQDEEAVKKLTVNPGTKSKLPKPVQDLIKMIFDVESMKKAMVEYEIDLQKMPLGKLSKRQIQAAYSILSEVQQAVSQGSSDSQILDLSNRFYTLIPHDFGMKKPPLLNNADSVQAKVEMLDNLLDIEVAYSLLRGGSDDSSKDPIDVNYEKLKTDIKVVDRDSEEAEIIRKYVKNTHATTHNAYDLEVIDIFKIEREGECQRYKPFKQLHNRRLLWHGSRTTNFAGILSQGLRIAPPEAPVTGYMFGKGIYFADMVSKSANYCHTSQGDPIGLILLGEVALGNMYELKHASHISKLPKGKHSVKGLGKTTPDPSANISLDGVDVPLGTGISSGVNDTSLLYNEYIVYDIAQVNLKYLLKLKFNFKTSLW

On to `COc1ccc(/C=C2\SC(=N)N(c3nccs3)C2=O)cc1` [O21], for which, in series [1], the “D = Triple resistant” value turned out to be 0. In series [1], the “S = Sum of Negative scores” value is listed as 2. The “C = H2O2- & Cd-resistant” value in series [1] came out at 0. Also, the “H = Potential Autophagy Induction” value in the series on LC3A/B puncta (score) and in the series on LC3A/B puncta (summary score) was 0 each time. The H2O2-resistant result with WI-38 cells [2] (setting [4]) and in the series with WI-38 cells [2] (setting [5]) was “YES” in each case. Also, the “No H2O2 stress treatment, at 10 uM (fold change)” value with WI-38 cells [2] (WI-38 cells) is 0.92 fold change. The EC50 in the series on WI-38 cells [2] (derived from dose response curves, 0.6-20 uM, H2O2-resistance of WI-38 cells) was 18.1 µM; in the series with WI-38 cells [2] (setting [6]), 18.1 µM. For the same compound, the “L = PARP inhibition” value at human PARP1 is 0. Besides, the “NRF2-dependency for H2O2-resistance, at 10 uM - with H2O2, 1st experiment” value with NRF2 (10 uM, with H2O2) was 1st, partial;. Besides, in the series with NRF2 (10 uM, experiment 3, with & without H2O2), the “NRF2-dependency for H2O2-resistance, at 10 uM (experiment 3) - with & without H2O2” value is reported as “YES”. Also, the “NRF2-dependency for H2O2-resistance (experiment 3)” value in the series with NRF2 (10 uM, with & without H2O2, NRF2 knockdown in WI-38 cells, YES = resistance reduced by at least 50%, partial = 25% to 50%) was “YES”. The “NRF2-dependency for H2O2-resistance, 1st experiment” value in the series on NRF2 (setting [7]) is reported as “partial;”. In addition, the “Assay 17: NRF2-dependency for H2O2-resistance” value with NRF2 (10 uM) is recorded as “YES”. Besides, the “J = NRF2-dependency for H2O2-resistance” value with NRF2 (score) and with NRF2 (summary score) was 1 throughout. The “Assay 7: H2O2-resistant, at 10 uM, validated by propidium iodide (PI) cell-death imaging” value in the series on WI-38 cells [3] (10 uM) is “YES”. Also, the cytotoxicity at 10 µM with WI-38 cells [3] (setting [8]) came out at 2.05%; in the series with WI-38 cells [3] (setting [9]), 7.8%.

In the case of `CC(C)(C)c1ccc(OCC(=O)Nc2ccc3c4c(cccc24)C(=O)NC3=O)cc1` [O22], the “D = Triple resistant” value in series [1] worked out at 2. The “S = Sum of Negative scores” value in series [1] is 0. Also, in series [1], the “C = H2O2- & Cd-resistant” value amounted to 1. For the same compound, the “H = Potential Autophagy Induction” value with LC3A/B puncta (score) and in the series with LC3A/B puncta (summary score) was 0 throughout. Also, the H2O2-resistant result in the series with WI-38 cells [2] (setting [4]) and in the series on WI-38 cells [2] (setting [5]) was “YES” throughout. For the same compound, in the series on WI-38 cells [2] (WI-38 cells), the “No H2O2 stress treatment, at 10 uM (fold change)” value is 0.96 fold change. Moreover, the “Assay 1: H2O2-resistant” value with WI-38 cells [2] (YES/NO, if NO, possibly due to repeated freezing/thawing of stocks) is given as “YES”. Further, the EC50 with WI-38 cells [2] (setting [6]) was found to be 20 µM. Besides, at human PARP1 (10 μM, in vitro), the “Inhibition of PARP1” value is “confirmed as PARP inhibitors; also recorded: inhibitors of PARP1”. Further, the “L = PARP inhibition” value on human PARP1 was 1. Moreover, the “NRF2-dependency for H2O2-resistance, at 10 uM - with H2O2, 1st experiment” value in the series on NRF2 (10 uM, with H2O2) is listed as 1st, partial;. Also, the “NRF2-dependency for H2O2-resistance, at 10 uM - with H2O2, 2nd experiment” value with NRF2 (10 uM, experiment 2 (2nd), with H2O2) is 2nd, partial. In addition, the “NRF2-dependency for H2O2-resistance, 1st experiment” value with NRF2 (setting [7]) is given as “partial;”. Also, the “NRF2-dependency for H2O2-resistance, 2nd experiment” value in the series with NRF2 (setting [7]) is listed as “partial”. Further, the “Assay 17: NRF2-dependency for H2O2-resistance” value in the series with NRF2 (10 uM) was “YES”. For the same compound, the “NRF2-dependency of H2O2-resistance (NRF2 siRNA knockdown)” value with NRF2 (at least 2 of 3 independent experiments) was “significantly attenuate”. In addition, the “J = NRF2-dependency for H2O2-resistance” value with NRF2 (score) and in the series with NRF2 (summary score) was 1 in each case. Further, the “Assay 7: H2O2-resistant, at 10 uM, validated by propidium iodide (PI) cell-death imaging” value with WI-38 cells [3] (10 uM) is given as “YES”. Also, the results for the cytotoxicity at 10 µM in the series with WI-38 cells [3] (setting [8]) and with WI-38 cells [3] (setting [9]) were 4.84% and 4.1%, respectively.
